The target of the assay is T1, human OX2R (Homo sapiens, UniProt O43614).
T1 construct: expressed in transfected cells; host or cells: CHO (Chinese hamster ovary) cells, grown under G418 selection
T1 sequence (O43614 1-444): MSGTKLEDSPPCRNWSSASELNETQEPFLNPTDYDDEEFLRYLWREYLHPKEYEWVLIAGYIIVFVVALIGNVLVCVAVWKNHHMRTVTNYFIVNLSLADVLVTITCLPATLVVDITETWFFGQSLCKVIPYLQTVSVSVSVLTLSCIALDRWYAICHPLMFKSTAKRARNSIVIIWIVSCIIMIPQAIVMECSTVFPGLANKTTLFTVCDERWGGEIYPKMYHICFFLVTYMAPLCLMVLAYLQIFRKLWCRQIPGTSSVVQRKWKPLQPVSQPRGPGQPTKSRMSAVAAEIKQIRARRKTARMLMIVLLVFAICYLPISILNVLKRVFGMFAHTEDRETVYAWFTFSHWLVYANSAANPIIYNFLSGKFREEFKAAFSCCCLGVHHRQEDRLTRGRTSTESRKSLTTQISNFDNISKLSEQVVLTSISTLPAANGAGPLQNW
Briefly: IP-One (IPOne) orexin receptor agonist assay in CHO cells expressing human OX2R. The format is cell-based. The settings on record: for EC50: CHO cells expressing human OX2R, IP-One IP-1 detection, 2 hours incubation, four parameter logistic fit, read-out: OX2R Potency, EC50; for % of reference agonist maximal effect: human OX2R, percentage of sample raw value/mean max effect (reference compound at 1 uM with 100% activity). Summed up: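 CHO cells stably expressing human OX2R were stimulated with compound (10-point ½-log dilutions) for 2 h at 37 °C. IP-1 accumulation was read by HTRF (IP-One, 665/620 nm). EC50 from a four-parameter fit; % effect relative to 1 μM reference agonist control.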

The record followed here is patent US12552767B2, “3-heteroaryl pyrrolidine and piperidine orexin receptor agonists” (Merck Sharp & Dohme LLC, priority 2020, dated 2026).

Each structure is given as a SMILES string.

The term EC50 denotes the concentration at which the effect is half-maximal. As for `COCCCOC(=O)N1CCC[C@H](c2cc[nH]n2)[C@@H]1CO[C@H]1CC[C@@H](c2ccccc2)CC1` (relative stereo) [Example 118, 3-methoxypropyl (CIS)-2-((((CIS)-4-phenylcyclohexyl)oxy)methyl)-3-(1H-pyrazol-3-yl)piperidine-1-carboxylate], the half-maximal effective concentration (EC50) was found to be 8960 nM and the “% of reference agonist maximal effect” value came to 47.9%.
For the molecule `O=C(CO)N1CCCC(c2ccn[nH]2)C1CO[C@H]1CC[C@@H](c2c(F)ccc(F)c2F)CC1` (relative stereo) [Example 32, 1-(3-(1H-Pyrazol-5-yl)-2-((((CIS)-4-(2,3,6-trifluorophenyl)cyclohexyl)oxy)methyl)piperidin-1-yl)-2-hydroxyethan-1-one], the EC50 stood at 3730 nM and the “% of reference agonist maximal effect” value was 86.3%.
On the same counts, the results for `CCNC(=O)N1CCCC(c2[nH]ncc2C)C1COC1CCC(C(C)C)CC1` (single isomer, unassigned) [Example 61, N-ethyl-2-(((4-isopropylcyclohexyl)oxy)methyl)-3-(4-methyl-1H-pyrazol-5-yl)piperidine-1-carboxamide] are 3510 nM and 87.4%.
On the same counts, the results for `CC(C)NC(=O)N1CCC[C@H](c2cc[nH]n2)[C@@H]1CO[C@H]1CC[C@@H](C(C)C)CC1` (relative stereo) [Example 121, (CIS)-N-isopropyl-2-((((CIS)-4-isopropylcyclohexyl)oxy)methyl)-3-(1H-pyrazol-3-yl)piperidine-1-carboxamide] are 1540 nM and 96.1%.
On the same counts, the results for `COC(=O)N1CCC[C@H](c2n[nH]cc2Cl)[C@@H]1CO[C@H]1CC[C@@H](c2ccc(Cl)cc2)CC1` (racemic) [Example 48, Methyl cis-3-(4-chloro-1H-pyrazol-3-yl)-2-((((CIS)-4-(4-chlorophenyl)cyclohexyl)-oxy)methyl)piperidine-1-carboxylate] are 922 nM and 97.6%.
Turning to `CC(C)[C@H]1CC[C@@H](OC[C@H]2[C@@H](c3cc[nH]n3)CCCN2C(=O)NC2CCCCC2)CC1` (relative stereo) [Example 124, (CIS)-N-cyclohexyl-2-((((CIS)-4-isopropylcyclohexyl)oxy)methyl)-3-(1H-pyrazol-3-yl)piperidine-1-carboxamide], the EC50 stood at 8200 nM and the “% of reference agonist maximal effect” value is on record as 92.3%.
On the same counts, the results for `COC(=O)N1[C@H](C)CC(c2[nH]ncc2C)[C@@H]1CO[C@H]1CC[C@@H](c2ccccc2)CC1` (stereo partly drawn) [Example 36, Methyl (2R,5R)-5-methyl-3-(4-methyl-1H-pyrazol-5-yl)-2-((((CIS)-4-phenylcyclohexyl)oxy)methyl)pyrrolidine-1-carboxylate] are 1030 nM and 96.3%.
On the same counts, the results for `C#CCOC(=O)N1CCC[C@H](c2cc[nH]n2)[C@@H]1CO[C@H]1CC[C@@H](C(C)C)CC1` (relative stereo) [Example 95, prop-2-yn-1-yl (CIS)-2-((((CIS)-4-isopropylcyclohexyl)oxy)methyl)-3-(1H-pyrazol-3-yl)piperidine-1-carboxylate] are 8770 nM and 79.7%.
On the same counts, the results for `Cc1c[nH]nc1[C@@H]1CCCN(C(=O)C2CC2)[C@@H]1CO[C@H]1CC[C@@H](c2cccc(F)c2)CC1` (relative stereo) [Example 14] are 65.5 nM and 99.9%.
For `CC[C@@H](C)OC(=O)N1CCC[C@H](c2cc[nH]n2)[C@@H]1CO[C@H]1CC[C@@H](c2ccccc2)CC1` [Example 108, (R)-sec-butyl (CIS)-2-((((CIS)-4-phenylcyclohexyl)oxy)methyl)-3-(1H-pyrazol-3-yl)piperidine-1-carboxylate], the EC50 was determined as 5270 nM and the “% of reference agonist maximal effect” value turned out to be 60.7%.
On the same counts, the results for `C[C@@H]1C[C@H]1C(=O)N1CCC[C@H](c2cc[nH]n2)[C@@H]1CO[C@H]1CC[C@@H](c2ccccc2)CC1` (relative stereo) [Example 70, ((TRANS)-2-methylcyclopropyl)((CIS)-2-((((CIS)-4-phenylcyclohexyl)oxy)methyl)-3-(1H-pyrazol-3-yl)piperidin-1-yl)methanone] are 292 nM and 100.0%.
On the same counts, the results for `CC(C)[C@H]1CC[C@@H](OC[C@H]2[C@@H](c3cc[nH]n3)CCCN2C(=O)C2CCC2)CC1` (relative stereo) [Example 79, cyclobutyl((CIS)-2-((((CIS)-4-isopropylcyclohexyl)oxy)methyl)-3-(1H-pyrazol-3-yl)piperidin-1-yl)methanone] are 5310 nM and 83.2%.
On the same counts, the results for `CCNC(=O)N1CC[C@H](c2cc[nH]n2)[C@@H]1CO[C@H]1CC[C@@H](c2ccccc2)CC1` (relative stereo) [Example 28, (CIS)-N-ethyl-2-((((CIS)-4-phenylcyclohexyl)ox)methyl)-3-(1H-pyrazol-3-yl)pyrrolidine-1-carboxamide] are 5960 nM and 22.9%.
Take `CCNC(=O)N1CCCC(c2[nH]ncc2C)C1COC1CCC(C(C)C)CC1` (single isomer, unassigned) [Example 58, N-ethyl-2-(((4-isopropylcyclohexyl)oxy)methyl)-3-(4-methyl-1H-pyrazol-5-yl)piperidine-1-carboxamide]: the EC50 is greater than 10000 nM and the “% of reference agonist maximal effect” value worked out at 0%.
On the same counts, the results for `COCc1c[nH]nc1[C@H]1CCCN(C(=O)OC)[C@H]1CO[C@H]1CC[C@@H](c2ccccc2)CC1` (relative stereo) [Example 57, Methyl cis-3-(4-(methoxymethyl)-1H-pyrazol-3-yl)-2-((((CIS)-4-phenylcyclohexyl)oxy)methyl)-piperidine-1-carboxylate] are 351 nM and 99.6%.
On the same counts, the results for `COC(=O)N1C[C@@H](C)C[C@@H](c2ccn[nH]2)[C@@H]1CO[C@H]1CC[C@@H](c2ccccc2)CC1` (racemic) [Example 40, (+/−) methyl (2R,3R,5S)-5-methyl-2-((((CIS)-4-phenylcyclohexyl)oxy)methyl)-3-(1H-pyrazol-5-yl)piperidine-1-carboxylate] are 1630 nM and 95.8%.
On the same counts, the results for `CCNC(=O)N1CCC[C@H](c2ccnn2C)[C@@H]1CO[C@H]1CC[C@@H](c2ccccc2)CC1` (relative stereo) [Example 22, (CIS)-N-ethyl-3-(1-methyl-1H-pyrazol-5-yl)-2-((((CIS)-4-phenylcyclohexyl)oxy)methyl)piperidine-1-carboxamide] are 6000 nM and 83.7%.
For the molecule `O=C(OC(CF)CF)N1CCC[C@H](c2cc[nH]n2)[C@@H]1CO[C@H]1CC[C@@H](c2ccccc2)CC1` (relative stereo) [Example 113, 1,3-difluoropropan-2-yl (CIS)-2-((((CIS)-4-phenylcyclohexyl)oxy)methyl)-3-(1H-pyrazol-3-yl)piperidine-1-carboxylate], the concentration for a half-maximal effect (EC50) amounted to 6670 nM and the “% of reference agonist maximal effect” value came out at 57.4%.
On the same counts, the results for `CC(OC(=O)N1CCC[C@H](c2cc[nH]n2)[C@@H]1CO[C@H]1CC[C@@H](c2ccccc2)CC1)C(F)F` (relative stereo) [Example 99, 1,1-difluoropropan-2-yl (CIS)-2-((((CIS)-4-phenylcyclohexyl)oxy)methyl)-3-(1H-pyrazol-3-yl)piperidine-1-carboxylate] are 1820 nM and 88.9%.
For `C=CCNC(=O)N1CCC[C@H](c2cc[nH]n2)[C@@H]1CO[C@H]1CC[C@@H](C(C)C)CC1` (relative stereo) [Example 120, (CIS)-N-allyl-2-((((CIS)-4-isopropylcyclohexyl)oxy)methyl)-3-(1H-pyrazol-3-yl)piperidine-1-carboxamide], the 50% effective concentration (EC50) came out at 1140 nM and the “% of reference agonist maximal effect” value turned out to be 97.8%.
Regarding `CCNC(=O)N1CCCC(c2ccn[nH]2)C1CO[C@H]1CC[C@@H](c2c(F)ccc(F)c2F)CC1` (stereo partly drawn) [Example 33], the EC50 came to 47.2 nM and the “% of reference agonist maximal effect” value is listed as 100.3%.
On the same counts, the results for `CCNC(=O)N1CCC[C@@H](c2n[nH]cc2C)[C@H]1CO[C@H]1CC[C@@H](c2cccc(F)c2)CC1` (single isomer, unassigned) [Example 12] are 414 nM and 100.0%.
On the same counts, the results for `COCC(C)NC(=O)N1CCC[C@H](c2cc[nH]n2)[C@@H]1CO[C@H]1CC[C@@H](c2ccccc2)CC1` (relative stereo) [Example 126, (CIS)-N-(1-methoxypropan-2-yl)-2-((((CIS)-4-phenylcyclohexyl)oxy)methyl)-3-(1H-pyrazol-3-yl)piperidine-1-carboxamide] are 944 nM and 100%.
On the same counts, the results for `COC(=O)N1CCCC(c2ccn[nH]2)C1CO[C@H]1CC[C@@H](c2c(F)ccc(F)c2F)CC1` (stereo partly drawn) [Example 29] are 1360 nM and 81.4%.
